Reference: PubChem BioAssay (NCI)
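Test compounds were applied to cells in 96-well plates for 48 hours at 5 doses. TGI denotes the concentration required for complete inhibition of growth.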

Key:
Assay in all cases: growth of human tumour cells (NCI), 48 h
SN12C renal = system: SN12C renal
SF-295 CNS = system: SF-295 CNS
HOP-18 NSCLC = system: HOP-18 NSCLC
ACHN renal = system: ACHN renal
TK-10 renal = system: TK-10 renal
NCI-H226 lung = system: NCI-H226 lung
SR leukemia = system: SR leukemia
CCRF-CEM leukemia = system: CCRF-CEM leukemia
RXF-631 renal = system: RXF-631 renal
UACC-257 melanoma = system: UACC-257 melanoma
KM20L2 colon = system: KM20L2 colon
XF 498 CNS = system: XF 498 CNS
M19-MEL melanoma = system: M19-MEL melanoma
SK-MEL-5 melanoma = system: SK-MEL-5 melanoma
HOP-92 NSCLC = system: HOP-92 NSCLC
DMS 273 small cell lung = system: DMS 273 small cell lung
HL-60(TB) leukemia = system: HL-60(TB) leukemia
A549 NSCLC = system: A549 NSCLC
UACC-62 melanoma = system: UACC-62 melanoma
SNB-19 CNS = system: SNB-19 CNS
MALME-3M melanoma = system: MALME-3M melanoma
IGROV1 ovarian = system: IGROV1 ovarian
786-0 renal = system: 786-0 renal
SK-MEL-2 melanoma = system: SK-MEL-2 melanoma
U251 CNS = system: U251 CNS
OVCAR-5 ovarian = system: OVCAR-5 ovarian
NCI-H460 lung = system: NCI-H460 lung
COLO 205 colon = system: COLO 205 colon
HCT-15 colon = system: HCT-15 colon
CAKI-1 renal = system: CAKI-1 renal
NCI-H23 lung = system: NCI-H23 lung
SK-MEL-28 melanoma = system: SK-MEL-28 melanoma
OVCAR-8 ovarian = system: OVCAR-8 ovarian
HT29 colon = system: HT29 colon
SF-268 CNS = system: SF-268 CNS
RPMI-8226 leukemia = system: RPMI-8226 leukemia
MOLT-4 leukemia = system: MOLT-4 leukemia
KM12 colon = system: KM12 colon
HCT-116 colon = system: HCT-116 colon
DMS 114 small cell lung = system: DMS 114 small cell lung
SK-OV-3 ovarian = system: SK-OV-3 ovarian
DLD-1 colon = system: DLD-1 colon
HCC-2998 colon = system: HCC-2998 colon
NCI-H522 lung = system: NCI-H522 lung
SF-539 CNS = system: SF-539 CNS
OVCAR-3 ovarian = system: OVCAR-3 ovarian
SW-620 colon = system: SW-620 colon
LXFL 529 NSCLC = system: LXFL 529 NSCLC
K-562 leukemia = system: K-562 leukemia
RXF 393 renal = system: RXF 393 renal
HOP-62 NSCLC = system: HOP-62 NSCLC
EKVX NSCLC = system: EKVX NSCLC
LOX IMVI melanoma = system: LOX IMVI melanoma
OVCAR-4 ovarian = system: OVCAR-4 ovarian
SNB-75 CNS = system: SNB-75 CNS
UO-31 renal = system: UO-31 renal
M14 melanoma = system: M14 melanoma
A498 renal = system: A498 renal

Measured: TGI

Cc1nc2sccn2c1C(=O)N/N=C1\SCC(=O)N1C
not listed: OVCAR-4 ovarian | SNB-75 CNS | UO-31 renal | M14 melanoma | A498 renal
> 100 µM: all other assays above

CN1c2ccccc2NC(CC(=O)O)C2CC=CN21 (centres undefined)
not listed: NCI-H226 lung | SR leukemia | HCT-116 colon | DLD-1 colon | HCC-2998 colon
> 100 µM: all other assays above

O=C(O)C1=CN=C(C(=O)O)NN1
not listed: DMS 273 small cell lung | OVCAR-5 ovarian | HCC-2998 colon | LOX IMVI melanoma | A498 renal
> 100 µM: all other assays above
